From patent publication US8088815B2, “Spiroindolinone pyrrolidines” (Hoffman-La Roche Inc., priority 2009, dated 2012)

biological target: interaction between p53 and MDM2 proteins (Homo sapiens, UniProt Q00987); test: HTRF assay of inhibition of the p53-MDM2 interaction (GST-MDM2 / biotinylated p53 peptide); format: binding; conditions: recombinant GST-tagged MDM2 and biotinylated p53 peptide, bsa:0.02%
Sequence (Q00987 whole entry): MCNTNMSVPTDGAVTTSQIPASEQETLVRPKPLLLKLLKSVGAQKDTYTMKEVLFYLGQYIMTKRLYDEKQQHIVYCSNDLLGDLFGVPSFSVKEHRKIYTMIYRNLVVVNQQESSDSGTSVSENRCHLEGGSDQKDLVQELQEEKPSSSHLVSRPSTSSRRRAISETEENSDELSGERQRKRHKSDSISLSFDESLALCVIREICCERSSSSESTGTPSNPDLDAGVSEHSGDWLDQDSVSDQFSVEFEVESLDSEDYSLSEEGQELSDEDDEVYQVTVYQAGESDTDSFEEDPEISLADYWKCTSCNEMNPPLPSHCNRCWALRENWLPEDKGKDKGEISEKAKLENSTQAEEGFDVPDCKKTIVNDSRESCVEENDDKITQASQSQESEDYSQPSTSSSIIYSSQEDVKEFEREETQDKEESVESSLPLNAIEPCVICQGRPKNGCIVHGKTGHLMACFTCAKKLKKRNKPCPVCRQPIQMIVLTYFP

| SMILES | IC50 [nM] |
| --- | --- |
| CC(C)(C)C[C@@H]1N[C@@H](C(=O)Nc2ccc(C#N)s2)[C@H](c2cccc(Cl)c2F)[C@]12C(=O)Nc1cc(Cl)ccc12 (racemic) [Example 187, rac-(2′S,3′R,4′S,5′R)-6-chloro-4′-(3-chloro-2-fluoro-phenyl)-2′-(2,2-dimethyl-propyl)-2-oxo-1,2-dihydro-spiro[indole-3,3′-pyrrolidine]-5′-carboxylic acid (5-cyano-thiophen-2-yl)-amide] | 15 |
| COc1cc(OCCO)ncc1NC(=O)[C@@H]1N[C@@H](CC(C)(C)C)[C@@]2(C(=O)Nc3cc(Cl)ccc32)[C@H]1c1cccc(Cl)c1F (racemic) [Example 192, rac-(2′S,3′R,4′S,5′R)-6-chloro-4′-(3-chloro-2-fluoro-phenyl)-2′-(2,2-dimethyl-propyl)-2-oxo-1,2-dihydro-spiro[indole-3,3′-pyrrolidine]-5′-carboxylic acid [6-(2-hydroxy-ethoxy)-4-methoxy-pyridin-3-yl]-amide] | 7 |
| Cn1c(NC(=O)[C@@H]2N[C@@H](CC(C)(C)C)[C@@]3(C(=O)Nc4cc(Cl)ccc43)[C@H]2c2cccc(Cl)c2F)ccc1C(=O)OC(C)(C)C (racemic) [Example 194, rac-5-{[(2′S,3′R,4′S,5′R)-6-chloro-4′-(3-chloro-2-fluoro-phenyl)-2′-(2,2-dimethyl-propyl)-2-oxo-1,2-dihydro-spiro[indole-3,3′-pyrrolidine]-5′-carbonyl]amino}-1-methyl-1H-pyrrole-2-carboxylic acid tert-butyl ester] | 55 |
| CC(C)(C)C[C@@H]1N[C@@H](C(=O)Nc2ccc(OCC(=O)O)cc2)[C@H](c2cccc(Cl)c2F)[C@]12C(=O)Nc1cc(Cl)ccc12 (racemic) [Example 206, rac-(4-{[(2′S,3′R,4′S,5′R)-6-chloro-4′-(3-chloro-2-fluoro-phenyl)-2′-(2,2-dimethyl-propyl)-2-oxo-1,2-dihydro-spiro[indole-3,3′-pyrrolidine]-5′-carbonyl]amino}-phenoxy)-acetic acid] | 6 |
| CC(C)(C)C[C@@H]1N[C@@H](C(=O)Nc2ccc(OCC(N)=O)cc2)[C@H](c2cccc(Cl)c2F)[C@]12C(=O)Nc1cc(Cl)ccc12 (racemic) [Example 210, rac-(2′S,3′R,4′S,5′R)-6-chloro-4′-(3-chloro-2-fluoro-phenyl)-2′-(2,2-dimethyl-propyl)-2-oxo-1,2-dihydro-spiro[indole-3,3′-pyrrolidine]-5′-carboxylic acid (4-carbamoylmethoxy-phenyl)-amide] | 15 |
| CC(C)(C)C[C@@H]1N[C@@H](C(=O)Nc2ccc(CCC(N)=O)cc2)[C@H](c2cccc(Cl)c2F)[C@]12C(=O)Nc1cc(Cl)ccc12 (racemic) [Example 211, rac-(2′S,3′R,4′S,5′R)-6-chloro-4′-(3-chloro-2-fluoro-phenyl)-2′-(2,2-dimethyl-propyl)-2-oxo-1,2-dihydro-spiro[indole-3,3′-pyrrolidine]-5′-carboxylic acid [4-(2-carbamoyl-ethyl)-phenyl]-amide] | 15 |
| COC(=O)c1cc2cc(NC(=O)[C@@H]3N[C@@H](CC(C)(C)C)[C@@]4(C(=O)Nc5cc(Cl)ccc54)[C@H]3c3cccc(Cl)c3F)ccc2s1 (racemic) [Example 212, rac-5-{[(2′S,3′R,4′S,5′R)-6-chloro-4′-(3-chloro-2-fluoro-phenyl)-2′-(2,2-dimethyl-propyl)-2-oxo-1,2-dihydro-spiro[indole-3,3′-pyrrolidine]-5′-carbonyl]amino}-benzo[b]thiophene-2-carboxylic acid methyl ester] | 18 |

Now from value to compound:

| IC50 [nM] | SMILES |
| --- | --- |
| 7 | CC(C)(C)C[C@@H]1N[C@@H](C(=O)Nc2ccc(C(N)=O)nc2)[C@H](c2cccc(Cl)c2F)[C@]12C(=O)Nc1cc(Cl)ccc12 (racemic) [Example 183, rac-(2′S,3′R,4′S,5′R)-6-chloro-4′-(3-chloro-2-fluoro-phenyl)-2′-(2,2-dimethyl-propyl)-2-oxo-1,2-dihydro-spiro[indole-3,3′-pyrrolidine]-5′-carboxylic acid (6-carbamoyl-pyridin-3-yl)-amide] |
| 16 | CC(C)(C)C[C@@H]1N[C@@H](C(=O)Nc2cnc(C(N)=O)nc2)[C@H](c2cccc(Cl)c2F)[C@]12C(=O)Nc1cc(Cl)ccc12 (racemic) [Example 185, rac-(2′S,3′R,4′S,5′R)-6-chloro-4′-(3-chloro-2-fluoro-phenyl)-2′-(2,2-dimethyl-propyl)-2-oxo-1,2-dihydro-spiro[indole-3,3′-pyrrolidine]-5′-carboxylic acid (2-carbamoyl-pyrimidin-5-yl)-amide] |
| 8 | CC(C)(C)C[C@@H]1N[C@@H](C(=O)Nc2ccc(C(N)=O)s2)[C@H](c2cccc(Cl)c2F)[C@]12C(=O)Nc1cc(Cl)ccc12 (racemic) [Example 188, rac-(2′S,3′R,4′S,5′R)-6-chloro-4′-(3-chloro-2-fluoro-phenyl)-2′-(2,2-dimethyl-propyl)-2-oxo-1,2-dihydro-spiro[indole-3,3′-pyrrolidine]-5′-carboxylic acid (5-carbamoyl-thiophen-2-yl)-amide] |
| 15 | Cn1cccc1NC(=O)[C@@H]1N[C@@H](CC(C)(C)C)[C@@]2(C(=O)Nc3cc(Cl)ccc32)[C@H]1c1cccc(Cl)c1F (racemic) [Example 195, rac-(2′S,3′R,4′S,5′R)-6-chloro-4′-(3-chloro-2-fluoro-phenyl)-2′-(2,2-dimethyl-propyl)-2-oxo-1,2-dihydro-spiro[indole-3,3′-pyrrolidine]-5′-carboxylic acid (1-methyl-1H-pyrrol-2-yl)-amide] |
| 50 | CCOC(=O)c1csc(NC(=O)[C@@H]2N[C@@H](CC(C)(C)C)[C@@]3(C(=O)Nc4cc(Cl)ccc43)[C@H]2c2cccc(Cl)c2F)n1 (racemic) [Example 196, rac-2-{[(2′S,3′R,4′S,5′R)-6-chloro-4′-(3-chloro-2-fluoro-phenyl)-2′-(2,2-dimethyl-propyl)-2-oxo-1,2-dihydro-spiro[indole-3,3′-pyrrolidine]-5′-carbonyl]-amino}-thiazole-4-carboxylic acid ethyl ester] |
| 51 | CC(C)(C)C[C@@H]1N[C@@H](C(=O)Nc2nc(C(=O)O)cs2)[C@H](c2cccc(Cl)c2F)[C@]12C(=O)Nc1cc(Cl)ccc12 (racemic) [Example 197, rac-2-{[(2′S,3′R,4′S,5′R)-6-chloro-4′-(3-chloro-2-fluoro-phenyl)-2′-(2,2-dimethyl-propyl)-2-oxo-1,2-dihydro-spiro[indole-3,3′-pyrrolidine]-5′-carbonyl]amino}-thiazole-4-carboxylic acid] |
| 12 | CC(C)(C)C[C@@H]1N[C@@H](C(=O)Nc2nc(C(N)=O)cs2)[C@H](c2cccc(Cl)c2F)[C@]12C(=O)Nc1cc(Cl)ccc12 (racemic) [Example 198, rac-(2′S,3′R,4′S,5′R)-6-chloro-4′-(3-chloro-2-fluoro-phenyl)-2′-(2,2-dimethyl-propyl)-2-oxo-1,2-dihydro-spiro[indole-3,3′-pyrrolidine]-5′-carboxylic acid (4-carbamoyl-thiazol-2-yl)-amide] |
| 4 | CC(C)(C)C[C@@H]1N[C@@H](C(=O)Nc2ccc(CCC(=O)O)cc2)[C@H](c2cccc(Cl)c2F)[C@]12C(=O)Nc1cc(Cl)ccc12 (racemic) [Example 209, rac-3-(4-{[(2′S,3′R,4′S,5′R)-6-chloro-4′-(3-chloro-2-fluoro-phenyl)-2′-(2,2-dimethyl-propyl)-2-oxo-1,2-dihydro-spiro[indole-3,3′-pyrrolidine]-5′-carbonyl]-amino}-phenyl)-propionic acid] |
